Test: Human HepG2 cell viability assay in 384 well format
Type: toxicity, cell-based
Set-up: dose 125 nL, time 70.5 hour; cytotoxicity at 70.5 h: concentration not given beside the values
Conditions: HepG2 cells, read-out: Inhibition

Structure (SMILES)	cytotoxicity at 70.5 h [%]
COCC(O)CN1CCC(=O)N(CC2CC2)Cc2ccccc21 (stereo not drawn)	-3.32
O=C(c1ncccn1)N1C[C@H]2CCC[C@@]2(COCc2ccncc2)C1	9.21
CCOc1ccccc1CN(CC)Cc1ccc(S(=O)(=O)NC)cc1	-5.11
Cc1nccn1-c1ccc(N2CCC(N[C@H](C)C(C)C)CC2)cc1	0.757
O=S(=O)(N[C@@H]1CCO[C@]2(CCN(CC3CCOCC3)C2)C1)C1CC1	-8.9
O=C(CSc1ccccc1Cl)NS(=O)(=O)c1ccc2c(c1)OCCO2	-4.84
COc1ccccc1CC(=O)NC1CCCc2cn[nH]c21 (stereo not drawn)	-0.577
CC(C)N1[C@H](Cn2cncn2)C[C@@H]2CN(c3ncccn3)CC[C@@H]21	-0.391
CN1CCCN(C(=O)c2cccn2-c2ccc3c(c2)OCCO3)CC1	-5.24
N#CCCSc1nnc(Cc2ccccc2F)o1	-3.12
CC(C)(O)CCc1ccc(C(=O)N2Cc3cnn(CCO)c3C2)cc1	-11.3
COCCCN(C(=O)c1ccc(-n2ccnc2)cc1)C1CCN(C)CC1	35.1
Cc1ccn(-c2ccc(NCc3cccnc3N3CCCCC3)nn2)n1	12.6
CCCN1CCC(Nc2nc(C)ns2)CC1	-8.37
CS(=O)(=O)CC(=O)N1C[C@@H]2CN(Cc3ccoc3)CCO[C@@H]2C1	-12
FC(F)(F)COc1cccc(-c2nc3c([nH]2)CCNC3)c1	-4.72
Cc1nc(CN2CCCC(N(C)CC3(O)CCCCC3)C2)no1 (stereo not drawn)	0.0355
CCOc1ccc(NC(=O)Cc2cc(C)[nH]n2)cc1CO	-7.67
O=C(N1CCC(Oc2ccncc2)C1)C1(c2ccc(F)cc2)CC1 (stereo not drawn)	5.93
COCC(=O)N1CCN(C)CC(Cc2cc(N(C)C)ncn2)C1 (stereo not drawn)	-3.09
c1coc(-c2nc(CNCCn3cccn3)cs2)c1	-5.85
CC(C)CCN1CC2(CCCN(C(=O)NCc3cccs3)C2)CCC1=O (stereo not drawn)	-2.43
CC1(C)CN(CC(O)C(C)(C)C)C(=O)CN(C(=O)c2ccccc2)C1 (stereo not drawn)	-4.32

Structure (SMILES)	cytotoxicity at 70.5 h [%]
CC(C)N1CCN(C(=O)c2ccc(Cn3ccccc3=O)o2)CC1	-5.81
O=c1c(NCc2ccncc2)c(NCC(O)CN2CCOCC2)c1=O (stereo not drawn)	-17.9
N#CCCN(Cc1cccnc1)C(=O)c1ccc(OCC2CC2)cc1	-4.18
CC(C)CN1CCCC1c1ccc(C(=O)Nc2cccnc2)s1 (stereo not drawn)	0.0684
COc1cccc(-c2cc(C3CCCNC3)ccn2)c1 (stereo not drawn)	3.19
CS(=O)(=O)N1CCC(Oc2ccc(C#N)cc2)CC1	7.19
CCCc1nc(CNc2cccc(C(=O)N3CCCC(O)C3)c2)no1 (stereo not drawn)	-4.84
CCN1CCC(N2CCN(c3cc(-c4nc(C)no4)ccn3)CC2)CC1	11.7
COCCOc1ncccc1C(=O)N1CCCn2ncnc21	-5.4
Cn1cc(C(=O)Nc2ccc(CC(=O)NC3CC3)cc2)nn1	-6.27
COc1ccccc1CCNC(=O)N(C)C(C)CS(C)(=O)=O (stereo not drawn)	24.3
CC(C)c1sc(Br)nc1C(=O)NCc1ccco1	32.2
COc1ncc(-c2ccc(NC(C)=O)cc2)c(OC)n1	-11
CCN(CC)C(=O)c1cc(C2(C)CCN(C(C)=O)CC2)nc(C)n1	4.01
COCCN(C)C(C)Cc1ccccc1OC (stereo not drawn)	-11.8
Cc1nn(C)c2c(NC3CCCC3)nc(C3CC3)nc12	-7.15
CN(C)C(=O)CN1CCO[C@H]2CN(c3ccccn3)C[C@H]21	-3.6
CCn1c(CC2CCN(C(=O)c3cc(C(C)C)n[nH]3)CC2)n[nH]c1=O	-6.21
CC(C)CN1CC(C(=O)NCCc2ccc(OC(F)F)cc2)CC1=O (stereo not drawn)	9.73
CCCc1nnsc1C(=O)NCC(O)c1ccoc1 (stereo not drawn)	-11.2
C[C@H]1C(=O)NC[C@H]2CN(Cc3cccc(F)c3)C[C@H]21	-8.78
CC(=O)NCCCc1ncnn1-c1cccc(Cl)c1	1.57
COCCCN1CCN(CC2CCCO2)CC1 (stereo not drawn)	22.5

Structure (SMILES)	cytotoxicity at 70.5 h [%]
Cc1n[nH]c(C)c1C1COCCN1C(=O)c1cccc(F)c1F (stereo not drawn)	-15.7
O=C(NC[C@H]1CC[C@H](c2ccnc3ncnn32)CC1)c1ccccn1	-6.58
COc1ncccc1CNC(=O)c1cc(F)cc(Br)c1	-2.19
O=C(COc1ccccc1F)NCCC(O)c1ccoc1 (stereo not drawn)	-4.07
COc1ccc(OC2CCN(C(=O)[C@@H](N)Cc3c[nH]cn3)CC2)cc1	1.71
O=C(c1ccnnc1)N1C[C@H](Oc2ccccn2)[C@H]2OCCC[C@H]21	-8.72
CCNC(=O)NCc1ccc(-n2ccc(C(F)(F)F)n2)cc1	-3.86
COc1ccc(-c2cn([C@H](CO)CC(C)C)nn2)cn1	-4.51
Cc1ccc(N2CCc3ncnc(C)c3CC2)nn1	18.8
Cc1cnc(C(=O)N2CCCn3c(nc(CN(C)C)cc3=O)C2)cn1	9.93
Cn1cc(CN2CCCC(CCc3ccc(F)cc3)C2)cn1 (stereo not drawn)	8.18
COc1ccc(CN2CCOC3(CCCN(C(C)=O)C3)C2)cc1 (stereo not drawn)	-1.06
CCn1c(C2CCNCC2)nn(CCn2ccc(C)n2)c1=O	-21.2
COC(=O)[C@H](C)NC(=O)Cn1ccc2ccc(F)cc21	-1.25
Cc1cc(C(=O)NCC2CCCO2)c(C)n1-c1cccnc1 (stereo not drawn)	-10.8
Cc1ccc(N2CCN(C(=O)[C@@H]3CCC(=O)N3)CC2=O)cc1	-7.74
Cn1cc(C(=O)N2CCN(Cc3cscn3)CC2)ccc1=O	4.94
Cc1ccc(S(=O)(=O)NC(=O)c2cc(S(C)(=O)=O)ccc2C)s1	-0.802
CCC(CO)N(Cc1ccccn1)C(=O)c1ccc(C)c(Cl)c1 (stereo not drawn)	-5.65
Cc1ccc(CNC(=O)Cn2ncc3c2c(C)nn3C)cc1	-0.794
CCOCC1CN(C(=O)c2cccs2)Cc2nn(C)cc21 (stereo not drawn)	-2.33
O=C(NC1CC1)C1CN(Cc2ccc3c(c2)OCCO3)CCN1 (stereo not drawn)	-11.1
CS(=O)(=O)c1cccc2c1CCCN2C(=O)Cc1cccc(F)c1	-2.8

Structure (SMILES)	cytotoxicity at 70.5 h [%]
Cc1ncccc1NC(=O)[C@@H]1C[C@@H]2CCN(Cc3cccs3)C[C@H]2O1	-12.3
CCC(NC(=O)CC1CCN(CC)CC1)c1cn2cccnc2n1 (stereo not drawn)	-5.63
CNC(=O)c1sccc1N(C)S(=O)(=O)c1ccc(Cl)cc1	19.5
Cc1ccc(CN2CCC3(CC2)CCN(Cc2ccco2)CC3)cc1	-6.1
CC1CN(Cc2ccc(-n3cccn3)cc2)CCO1 (stereo not drawn)	0.696
CCOCC1CN(C(=O)c2ccoc2)Cc2cnn(C)c21 (stereo not drawn)	13.6
Cc1nc(C2CCCN2CCCS(=O)(=O)c2ccccc2)no1 (stereo not drawn)	-3.41
Cc1cc(-c2noc(C3CCS(=O)(=O)C3)n2)ccc1F (stereo not drawn)	-11
Cn1cnc2c1CCN(CC(=O)N(Cc1ccccc1F)C1CC1)C2	-6.36
CN(CC(=O)N(C)C1CC1)C1CCN(c2ccc(Cl)cc2)CC1	24.7
CNC(=O)C(C)(C)NC(=O)c1cc(COc2cccc(C(C)=O)c2)[nH]n1	-6.29
OCCC1CCN(c2ccnc3ccsc23)C1 (stereo not drawn)	-3.95
Cc1cc(N2CCC(O)(CN(C)C(=O)CCN)C2)c2cnccc2n1 (stereo not drawn)	-4.6
CCOc1ccccc1OC1CCN(C(=O)c2cnsn2)CC1	-1.79
CN(C)C(=O)c1cccc(C[S+]([O-])CC(=O)NC2CCCC2)c1 (stereo not drawn)	5.53
CN(C)S(=O)(=O)N1C[C@H]2CCC[C@@]2(COc2cccnc2)C1	-5.8
Cc1cc(C)n(CC2CCCN2C(=O)c2ccc3c(c2)OCO3)n1 (stereo not drawn)	6.92
CN(Cc1ccco1)[C@@H]1CN(Cc2nccs2)C[C@@H]2CCCO[C@@H]21	-5.05
CC(C)c1noc(CN(Cc2cccs2)C2CC2)n1	6.94
O=C(CCc1cccnc1)Nc1ccc(OCC2CCOCC2)cc1	-10.4
CC[C@@]1(O)CCN(C(=O)CCc2cnn(C)c2)C[C@H]1O	-9.56
Cc1ncsc1CN1CCOC(C)(C(=O)N(C)C)C1 (stereo not drawn)	20
CC(C)(C)c1ncc(C(=O)NCCSc2ccccn2)c(O)n1	30.9

Structure (SMILES)	cytotoxicity at 70.5 h [%]
Cc1cc(C)nc(N2CCC(CNC(=O)c3cnccn3)CC2)n1	3.07
CC(C)c1nc(C(=O)N2C[C@H]3CC[C@@H]2CN(C2CCOCC2)C3)cs1	-7.88
Cc1cnn(CC2CCCN2Cc2nc3ccccc3n2C)c1 (stereo not drawn)	-10.6
CC(C)Nc1nc(N2CCCC2)nc2c1CN(C)CC2	-9.83
O=C(C1CC1)N1CCN(Cc2coc(-c3ccc(Cl)cc3)n2)CC1	12.1
Cc1ccc(N2C[C@@H]3CN(Cc4ccsc4)CCO[C@@H]3C2)nn1	-11.5
CN(Cc1n[nH]c(=O)n1Cc1ccco1)S(C)(=O)=O	2.27
Cc1csc(NC(=O)CN2CCc3c(nc(C4CC4)n3C)C2)n1	-1.68
c1ccc(-c2cc(CN3C[C@@H]4CC[C@H](C3)N(CC3CC3)C4)on2)cc1	-6.85
Cc1ccc(-c2cc(CS(=O)(=O)NC3CCCNC3=O)on2)cc1 (stereo not drawn)	0.495
O=C(C1CCOCC1)N1C[C@H]2CCC[C@@]2(COc2ccccn2)C1	-11.3
CCC1(O)CCCN(c2ncnc3c2c(C)nn3C)C1 (stereo not drawn)	-4.68
COC[C@@]12CC[C@@H](N3CCOCC3)C[C@H]1CCN(c1cnccn1)C2	13.9
O=C(c1ccc2nccn2c1)N1CCC(CCn2cccn2)CC1	-9.36
CCOCCCNCc1cc(O)c2cc(C)ccc2n1	22.7
Cc1nn(CCC(=O)N2CCCC(OCc3cccnc3)C2)c(C)c1C (stereo not drawn)	-6.47
CC(=O)NCCCSC1CCCN(c2ccccc2F)C1=O (stereo not drawn)	-6.35
Cc1cn(-c2ccccc2)nc1NS(=O)(=O)c1ccc(C(=O)O)cc1	10.8
N#Cc1cc2cc(Cl)cnc2nc1O	-12
Nc1cc(C(=O)N2CCCC3(C=Cc4ccccc4O3)CC2)ccn1 (stereo not drawn)	-4.49
Cc1ccc2c(c1)C(NC(=O)C1CCN(S(C)(=O)=O)CC1)CC(C)(C)O2 (stereo not drawn)	-2.93
